Results: Sander's compilation of Henry's law constants (doi:10.1246/bcsj.55.1054)

Assay: Henry solubility constant Hcp at 298.15 K (mol/(m3 Pa))
Settings: reference: Sanemasa et al. (1982)

SMILES	Henry solubility constant Hcp
Cc1cccc(C)c1C [1,2,3-trimethylbenzene]	0.0024
Cc1cc(C)cc(C)c1 [1,3,5-trimethylbenzene]	0.0011
Cc1cccc(C)c1 [1,3-dimethylbenzene]	0.0014
CCc1ccccc1 [ethylbenzene]	0.0013
Cc1ccccc1C [1,2-dimethylbenzene]	0.0019
c1ccccc1 [benzene]	0.0017
Cc1ccccc1 [methylbenzene]	0.0015
CCCc1ccccc1 [propylbenzene]	0.00095
Cc1ccc(C)c(C)c1 [1,2,4-trimethylbenzene]	0.0016
CC(C)c1ccccc1 [(2-propyl)-benzene]	0.00089
Cc1ccc(C)cc1 [1,4-dimethylbenzene]	0.0013
